The target in the test is T1, Ras-GAP interaction (Bos taurus, UniProt P09851).
T1 construct: made in house; host or cells: GAP: E. coli JM109 (plasmid pYO); Ha-Ras: E. coli RRllaci^q (plasmid pRas[Gly12 Ala59])
T1 sequence (P09851 1-1044): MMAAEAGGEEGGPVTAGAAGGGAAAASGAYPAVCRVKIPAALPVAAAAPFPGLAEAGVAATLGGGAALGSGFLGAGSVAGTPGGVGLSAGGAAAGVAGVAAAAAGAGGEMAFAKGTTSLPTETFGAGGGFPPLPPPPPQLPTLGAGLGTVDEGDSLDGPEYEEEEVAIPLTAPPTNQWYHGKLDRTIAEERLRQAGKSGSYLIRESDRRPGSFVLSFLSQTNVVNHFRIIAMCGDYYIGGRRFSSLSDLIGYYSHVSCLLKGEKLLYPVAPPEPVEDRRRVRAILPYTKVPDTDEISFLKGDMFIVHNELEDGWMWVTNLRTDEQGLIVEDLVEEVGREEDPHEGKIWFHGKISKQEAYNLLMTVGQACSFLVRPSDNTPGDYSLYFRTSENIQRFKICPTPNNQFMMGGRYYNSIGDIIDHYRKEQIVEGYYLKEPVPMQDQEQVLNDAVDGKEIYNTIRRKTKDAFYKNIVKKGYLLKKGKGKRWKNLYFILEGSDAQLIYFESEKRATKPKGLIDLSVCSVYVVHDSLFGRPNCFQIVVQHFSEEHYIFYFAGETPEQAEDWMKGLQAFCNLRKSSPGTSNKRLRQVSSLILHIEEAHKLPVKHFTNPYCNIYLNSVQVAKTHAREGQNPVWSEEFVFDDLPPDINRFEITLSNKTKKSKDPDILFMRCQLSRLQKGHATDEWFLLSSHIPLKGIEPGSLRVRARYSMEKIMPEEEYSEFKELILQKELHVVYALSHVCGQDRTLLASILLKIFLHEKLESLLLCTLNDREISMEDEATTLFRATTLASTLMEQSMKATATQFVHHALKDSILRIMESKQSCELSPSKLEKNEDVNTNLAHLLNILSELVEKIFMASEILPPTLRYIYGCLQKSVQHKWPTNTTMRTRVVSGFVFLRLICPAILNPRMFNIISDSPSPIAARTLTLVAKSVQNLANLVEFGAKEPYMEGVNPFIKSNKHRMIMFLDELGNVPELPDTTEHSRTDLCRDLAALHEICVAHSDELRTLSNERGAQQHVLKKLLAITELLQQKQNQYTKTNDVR
The experiment in a line: Ras-GAP interaction inhibition assay (GAP-stimulated Ras GTPase, charcoal adsorption). The class given is biochemical, bovine. As to conditions: concentration of peptide required to reduce GAP stimulated Ras-GTP hydrolysis by 50%; 10 fmol GAP, 240 fmol Ha ras p21-GTP, 4 minutes at 24°C. As to the method:
The activity of the synthetic peptides of the present invention, as inhibitors of the interaction of ras with GAP was determined in an assay which measures GAP dependent, Ras GTPase activity. Bovine GAP was either purified from fresh bovine brains or recombinantly produced in E. coli. It is understood that the methods of the present invention may utilize either the recombinant full length GAP or the bovine brain derived GAP. In addition, GAP from other species, such as human and mouse, may be substituted for bovine GAP since they share about 95% amino acid homology. Truncated recombinant forms of GAP are also suitable for use in the Ras-GAP interaction assay [Marshall, M.S., et al., (1989), EMBO J., 8, pp1105-1110]. However, for the screening of synthetic peptides for their ability to block the Ras-GAP interaction, the recombinant, full length GAP is preferred.
The Ras protein utilized in the Ras-GAP GTPase assay of the present invention is Harvey ras (Ha-ras). It is understood that other forms of Ras protein are suitable for use in the present invention. Other suitable forms of Ras protein include, but are not limited to, Kirsten Ras, yeast S. cerevisiae RAS, and N-Ras. Furthermore, it is readily apparent to those skilled in the art that any form of Ras protein which is capable of interacting with GAP is suitable for use in the Ras-GAP GTPase assay.
Ras GTPase activity was measured by the charcoal adsorption procedure. Each 50 µL reaction contained 10 fmol purified GAP, 240 fmol Ha ras p21-[γ ³²P] GTP and 1 mg/mL BSA in buffer D. Varying amounts of the competing peptides were added as indicated. Prewarmed reactions (24°C) were initiated by the addition of GAP, then incubated for 4 minutes at 24°C. The reactions were terminated by the addition of 5 volumes of ice cold 5% activated charcoal (Sigma: HCl washed) in 50 mM NaH₂PO₄. GTPase activity was quantitated by measuring the free ³²P-orthophosphate in the cleared supernatant after centrifugation of the charcoal mix. GAP-stimulated Ras GTPase activity in the absence of competitors was 40-60 fmol Ras-GTP hydrolyzed; the 100% control value. In the absence of GAP, GTP hydrolysis was not detectable during the incubation period of the assay. Inhibitors of this assay block GAP-stimulated Ras GTPase without impairing intrinsic Ras GTPase, assayed in the absence of GAP following incubation at 24°C for one hour.
Ras peptides were dissolved in either 100% dimethyl formamide (DMF, American Burdick and Jackson) or 100% dimethyl sulfoxide (DMSO, Fluka UV-spectroscopy grade) at a calculated peptide concentration of 1-4 mM. Following 1 minute in a Sonicor SC-200 bath sonicator at room temperature, the peptide solutions were vortexed, and then centrifuged for 5 minutes at room temperature in an Eppendorf microfuge to remove any undissolved material. 20 µL of the cleared peptide solutions were then added to 80 µL of Buffer D in a dilution series covering a range of peptide concentrations from 0.02 µM up to the maximum solubility limit for each peptide. In each dilution, the solvent concentration was maintained at 20%. These peptides solutions were then centrifuged for 5 minutes at room temperature at 10,000 x g, and the cleared supernatants were divided into 2 parts. One part of each cleared peptide dilution was used in a GAP competition assay: 40 µL was added to a 5 µL solution containing 0.1 mg/mL BSA plus 240 fmol Ha-ras p21-[γ-³²P]GTP. Reactions were initiated upon addition of 5 µL of diluted GAP (10 fmol), and analyzed as described above.

No end group written: not given here.

For LIQNHFVDEYDPTIE [Ras 23-37], the “IC50*” value is listed as “no inhibition”. With SALTIQLIQNHFVDEYDPTIE [Ras 17-37], half-maximal inhibition (IC50) was put at 3600 nM. The compound `CC[C@H](C)[C@H](NC(=O)[C@H](CC(C)C)NC(=O)[C@H](CCC(N)=O)NC(=O)[C@@H](NC(=O)[C@@H](NC(=O)[C@H](CC(C)C)NC(=O)[C@H](C)NC(=O)[C@@H](N)CO)[C@@H](C)O)[C@@H](C)CC)C(=O)N[C@@H](CCC(N)=O)C(=O)N[C@@H](CC(N)=O)C(=O)N[C@@H](Cc1c[nH]cn1)C(=O)N[C@@H](Cc1ccccc1)C(=O)N[C@H](C(=O)N[C@@H](CC(=O)O)C(=O)N[C@@H](CCC(=O)O)C(=O)N[C@@H](Cc1ccc(O)cc1)C(=O)O)C(C)C` [Ras 17-32] registered a half-maximal inhibitory concentration (IC50) of 900 nM.

By IC50 is commonly meant the concentration at which inhibition is half-maximal. A low value points to greater potency.

Values taken from patent EP0496162A2, “Peptide inhibitors of RAS-GAP interaction” (MERCK & CO. INC., priority 1990, dated 1992).
